C[C@@H]1CCCN1CCc1nc2cc(-c3ccc(C#N)cc3)ccc2o1 [Example 24E, 4-{2-[2-(2-(R)-methyl-pyrrolidin-1-yl)-ethyl]-benzooxazol-5-yl}-benzonitrile]
melting point: 70 to 72 °C
